Experimental data taken from EP0969013B1, “Peptides for inhibiting HPV E7 proteins” (Deutsches Krebsforschungszentrum Stiftung des öffentlichen …, priority 1998, dated 2003).
Peptide text beside a SMILES is read from it.

Columns and labels:
Assay type in all cases: cell-based
E7/2 cells [1] = test: Cell cycle profile of E7/2 cells (propidium iodide, FACscan, CellQuest); settings: 10 µM - 200 µM penetratin-fused synthesized peptide, 1 hour to 72 hours, marker for cell proliferation
Experimental: (§1) • (A) Peptide No. 732 is chemically synthesized with a leader attached to the NH2 end and supporting the incorporation into cells. It is penetratin and originates from Drosophila antennapedia. Thus, peptide No. 732 is available as fusion polypeptide and has the following sequence: [formula] Cells are used in which HPV16 E7 is expressed and whose growth depends thereon. Such cells are e.g. E7/2 cells. They are transfected with 10 µM - 200 µM of the synthesized peptide No. 732. Growth rate, apoptosis and cell cycle profiles of the cells are determined 1 hour to 72 hours after the transfection. The former is effected by determining the cell number. As regards the second test, reference is made to Example 2 (A). As to the latter test, the cell DNA is stained with propidium iodide and its content is determined in a FACscan. On the basis thereof, the cell cycle profile is assessed by means of the CellQuest program (Schulze, A. et al., Proc. Natl. Acad. Sci, U.S.A. 92, (1995), 11264-11268), the number of cells in the S phase being taken as a marker for the cell proliferation. […] For this purpose, the BamHI/NdeI fragment (cf. Example 1) of pJM-1 is inserted in the vector pET 19b (Novagen company) so as to obtain the vector pH6-732. Thereafter, cleavage is carried out by means of Ndel and a TAT-cDNA of HIV-1 (Vives, E. et al., J. Biol. Chem. 272, (1997), 16010-16017) is inserted. […]

E7/2 cells [2] = test: Growth rate of E7/2 cells (cell number); settings: 10 µM - 200 µM penetratin-fused synthesized peptide, 1 hour to 72 hours
Experimental: as §1

E7/2 cells [3] = test: Apoptosis of E7/2 cells (propidium iodide, FACscan); settings: 10 µM - 200 µM penetratin-fused synthesized peptide, 1 hour to 72 hours
Experimental: 24 hours after the transfection, the cells are fixed and stained using propidium iodide. The cells are analyzed in a FACscan by measuring the fluorescence caused by propidium iodide. Apoptotic nuclei are shown as nuclei having a DNA content of less than 2N. The amount of apoptotic nuclei is determined in comparison with normal nuclei.
• (A) Peptide No. 732 is chemically synthesized with a leader attached to the NH2 end and supporting the incorporation into cells. It is penetratin and originates from Drosophila antennapedia. Thus, peptide No. 732 is available as fusion polypeptide and has the following sequence: [formula] Cells are used in which HPV16 E7 is expressed and whose growth depends thereon. Such cells are e.g. E7/2 cells. They are transfected with 10 µM - 200 µM of the synthesized peptide No. 732. Growth rate, apoptosis and cell cycle profiles of the cells are determined 1 hour to 72 hours after the transfection. The former is effected by determining the cell number. […] As to the latter test, the cell DNA is stained with propidium iodide and its content is determined in a FACscan. On the basis thereof, the cell cycle profile is assessed by means of the CellQuest program (Schulze, A. et al., Proc. Natl. Acad. Sci, U.S.A. 92, (1995), 11264-11268), the number of cells in the S phase being taken as a marker for the cell proliferation. […]

SMILES: CC[C@H](C)[C@H](NC(=O)[C@H](CCCCN)NC(=O)[C@H](CCCCN)NC(=O)[C@H](Cc1c[nH]c2ccccc12)NC(=O)[C@H](CCCCN)NC(=O)[C@H](CCSC)NC(=O)[C@H](CCCNC(=N)N)NC(=O)[C@H](CCCNC(=N)N)NC(=O)[C@H](CC(N)=O)NC(=O)[C@H](CCC(N)=O)NC(=O)[C@H](Cc1ccccc1)NC(=O)[C@H](Cc1c[nH]c2ccccc12)NC(=O)[C@@H](NC(=O)[C@H](CCCCN)NC(=O)[C@@H](NC(=O)[C@H](CCC(N)=O)NC(=O)[C@@H](N)CCCNC(=N)N)[C@@H](C)CC)[C@@H](C)CC)C(=O)N[C@@H](C)C(=O)N[C@@H](C)C(=O)N[C@@H](CCCNC(=N)N)C(=O)N[C@@H](CC(C)C)C(=O)N[C@@H](CCCNC(=N)N)C(=O)N[C@@H](CC(C)C)C(=O)N[C@@H](CCCNC(=N)N)C(=O)N[C@@H](CS)C(=O)NCC(=O)N[C@H](C(=O)N[C@H](C(=O)N[C@@H](CC(C)C)C(=O)N[C@@H](CC(C)C)C(=O)N[C@@H](CC(C)C)C(=O)N[C@@H](CS)C(=O)N[C@H](C(=O)N[C@@H](CC(C)C)C(=O)N[C@@H](CC(=O)O)C(=O)N[C@@H](CC(C)C)C(=O)O)[C@@H](C)O)[C@@H](C)CC)C(C)C [peptide No. 732] (H-RQIKIWFQNRRMKWKKIAARLRLRCGVILLLCTLDL-OH)
- number of cells in the S phase (E7/2 cells [1]): reduces the number of cells in the S phase
- growth rate (E7/2 cells [2]): reduces the growth rate
- apoptosis frequency (E7/2 cells [3]): lowers the apoptosis frequency
